Reference: patent US8329639B2, “MUC1 based glycolipopeptide vaccine with adjuvant” (priority 2011, dated 2012)

What was measured:
B16-MUC1 tumor cells = experiment: Tumor growth, B16-MUC1 model; assay type: in vivo, C57B1/6 mice; settings: 50 μg Liposomal PET Lipid A, value stated jointly with saline group
Procedure: (§1) C57B1/6 mice were treated using a bi-weekly schedule with saline vehicle, 50 μg Liposomal PET Lipid A or 5 μg of liposomal vaccine formulation of Example 1 starting on day −42. On Day 0, mice were challenged with either 2×10^6 B16-MUC1, 0.5×10^6 B16, or 2×10^6MC38-MUC1 tumor cells followed by two additional vaccinations on days +3 and +17. Tumor growth was recorded twice weekly.
In the B16-MUC1 model, animals treated with the Example 1 vaccine formulation had no tumors at Day 44. 9/12 animals were tumor free in the Example 1 vaccine formulation group at end of study. […] Mean tumor volume in these two groups was about 200 mm^3 by Day 10. By Day 24, mean tumor volume was about 1200 mm^3 for the saline and PET lipid A groups.

MC38-MUC1 tumor cells = experiment: Tumor growth, MC38-MUC1 model; assay type: in vivo, C57B1/6 mice; settings: vaccine 5 μg, Liposomal PET Lipid A 50 μg
Procedure: as §1
In the MC38-MUC1 model, 3/12 animals were tumor free in the Example 1 vaccine formulation group at the end of the study. […] By Day 32, mean tumor volume was about 120 mm^3 for the Example 1 vaccine formulation group as compared to about 1200 mm^3 for the PET lipid A group and about 1700 mm^3 for the saline group.

[1] = test system: MUC1 antigen having SEQ ID NO: 2; experiment: Humoral response: serum IgG ELISA on plates coated with MUC1 antigen; assay type: in vivo, C57B1/6J mice; settings: vaccine 5, 25 and 100 μg/mouse; PET lipid A 50 μg; serially diluted sera
Procedure: C57B1/6J mice were injected with a liposomal vaccine formulation of Example 1 in three different concentrations of vaccine (5, 25 and 100 μg). 50 μg dose of PET lipid A and saline were used as a negative control. Sera from the mice were isolated and subsequently serially diluted and incubated onto plates coated with MUC1 antigen having SEQ ID NO: 2. After incubation with sera, the plates were washed and a labeled anti-mouse IgG specific antibody was added. The antibody was washed off and the mouse IgG was measured via an ELISA reader.

Substance: pentaerythritol-6-chain-C14-glucosamine-mono-phosphate [PET lipid A]
- mean tumor volume by Day 10 (B16-MUC1 tumor cells): about 200 mm^3
- mean tumor volume by Day 24 (B16-MUC1 tumor cells): about 1200 mm^3
- mean tumor volume by Day 32 (MC38-MUC1 tumor cells): about 1200 mm^3
- antibody (IgG) response by ELISA [1]: no antibody response
